# Test results from paper PMC3726442 (PLoS ONE, 2013).
# Assay: Plasma concentrations of tamoxifen and its metabolites in breast cancer patients on tamoxifen, by HPLC-tandem mass spectrometry
# [1] = all samples analyzed, n = 125, before daily 20 mg TAM dose
# From the text: One hundred and thirty five Caucasian patients of Spanish descent recently diagnosed with BC were recruited from the center Fundación Tejerina-Centro de Patología de la Mama (Madrid). Premenopausal and postmenopausal women were enrolled when started on TAM as standard adjuvant therapy after undergoing primary surgery, radiation and adjuvant chemotherapy. Patients were excluded if they had started TAM therapy simultaneously with either adjuvant chemotherapy or adjuvant radiation therapy (or both) or if they were undergoing other adjuvant endocrine therapies. Patients who were pregnant or breast-feeding were also excluded from the study. […] Blood samples were collected within 3 to 60 months of initiating TAM treatment.
# Venous blood was collected from all 135 subjects before taking their daily 20- mg dose of TAM. Ten milliliters of heparin plasma were separated by centrifugation and immediately stored at −20°C until analysis. In addition, one milliliter of an EDTA blood sample was taken for subsequent DNA extraction and genotyping. DNA was isolated from peripheral leukocytes using a QIAamp DNA Blood Mini Kit® (Qiagen, Madrid, Spain) according to the manufacturer’s instructions. The DNA concentration was determined and adjusted to 2–20 ng/ µL.
# TAM and its metabolites were separated and quantified by high-pressure liquid chromatography-tandem mass spectrometry using an Agilent HPLC 1200 system. HPLC experiments were performed using a binary pump G1312A, a G1316A column oven, G1379B degasser and an automatic injector H-ALS G1367B. Mobile phase A and phase B consisted of 0.1% formic acid in water and acetonitrile, respectively. Mobile phases A and B were pumped through a ZORBAX Eclipse XDB-C18 column (150 mm×2.1 mm I.D., 3.5 µm, Agilent USA) at a flow rate of 0.2 mL/min using the gradient shown in Table 1. Separation was conducted at 30°C. 15- µL aliquots were injected and the autosampler needle was rinsed in acetonitrile/water solution (1∶1). The total run time was 20 min. During the first 4.0 and last 2.0 min, the eluate was removed using a divert valve to avoid endogenous compounds entering the mass spectrometer.
# As a detector, we used an A 6410 Triple Quadrupole mass spectrometer (Agilent Technologies, USA) equipped with a heated electrospray ionization source (Thermo Fisher Scientific, Waltham, MA, USA) operating in positive ion mode. For quantification, multiple reaction monitoring (MRM) chromatograms were acquired using Mass Hunter software version B.01.04 (Agilent Technologies, USA). Positive ions were created at atmospheric pressure. Quadrupoles operated at unit resolution (0.7 Da).
# A 300- µL volume of 1% formic acid in acetonitrile containing internal standards was added to a 100- µL serum aliquot. After vortexing and centrifugation, the clear supernatant was transferred to a HybridSPE column (Supelco) and the eluents stored at 2–8°C until analysis. Samples were analyzed in triplicate.
# Descriptive statistics were calculated using standard methods. Metabolic ratios were calculated as the concentration of substrate/concentration of metabolite. The non-normal distribution of data was confirmed by the Kolmogorov-Smirnov test. Levels of TAM, metabolites and ratios between genotype groups were compared using Wilcoxon-Mann-Whitney or Kruskal-Wallis tests. All statistical tests (two-sided) were performed using SPSS software (version 18.0 SPSS, Chicago, IL). Significance was set at a p<0.05.
molecule,measurement,setting,value
4-hydroxy-tamoxifen [4-OH-tamoxifen],median plasma concentration,[1],6.75 ng/mL
"CC/C(=C(\c1ccccc1)c1ccc(OCCN(C)C)cc1)c1ccccc1 [Tamoxifen, reference compound]","plasma concentration, mean ±SD","genotype CYP2D6 I/I, n = 1",130.54 ± 0.00 ng/mL
same,"plasma concentration, median","genotype CYP2D6 I/I, n = 1",130.54 ng/mL
same,"plasma concentration, range","genotype CYP2D6 I/I, n = 1",(130.54–130.54) ng/mL
same,"plasma concentration, range","genotype CYP2D6 I/P, n = 8",(88.08–289.96) ng/mL
same,"plasma concentration, mean ±SD","genotype CYP2D6 P/P, n = 2",278.43 ± 132.13 ng/mL
same,"plasma concentration, median","genotype CYP2D6 P/P, n = 2",278.43 ng/mL
same,"plasma concentration, range","genotype CYP2D6 P/P, n = 2",(185.00–371.83) ng/mL
same,"plasma concentration, mean ±SD","genotype CYP2D6 wt/I, n = 4",208.48 ± 66.06 ng/mL
same,"plasma concentration, range","genotype CYP2D6 wt/I, n = 4",(151.94–302.03) ng/mL
same,"plasma concentration, mean ±SD","genotype CYP2D6 wt/P, n = 26",209.57 ± 121.53 ng/mL
same,"plasma concentration, range","genotype CYP2D6 wt/P, n = 26",(89.79–576.23) ng/mL
same,"plasma concentration, mean ±SD","genotype CYP2D6 wt/wt, n = 78",203.05 ± 80.53 ng/mL
same,"plasma concentration, range","genotype CYP2D6 wt/wt, n = 78",(77.10–573.83) ng/mL
same,"plasma concentration, range","genotype CYP2D6 wtxN/P, n = 2",(102.91–264.41) ng/mL
same,"plasma concentration, mean ±SD","genotype CYP3A4 wt/*1B, n = 3",260.69 ± 136.19 ng/mL
same,"plasma concentration, median","genotype CYP3A4 wt/*1B, n = 3",261.00 ng/mL
same,"plasma concentration, range","genotype CYP3A4 wt/*1B, n = 3",(124.35–396.73) ng/mL
same,"plasma concentration, mean ±SD","genotype CYP3A4 wt/*3, n = 2",212.83 ± 68.55 ng/mL
same,"plasma concentration, median","genotype CYP3A4 wt/*3, n = 2",212.83 ng/mL
same,"plasma concentration, range","genotype CYP3A4 wt/*3, n = 2",(164.35–261.30) ng/mL
same,"plasma concentration, mean ±SD","genotype CYP3A4 wt/*17, n = 9",230.28 ± 153.17 ng/mL
same,"plasma concentration, range","genotype CYP3A4 wt/*17, n = 9",(88.08–573.83) ng/mL
same,"plasma concentration, mean ±SD","genotype CYP3A4 wt/wt, n = 107",198.93 ± 89.59 ng/mL
same,"plasma concentration, range","genotype CYP3A4 wt/wt, n = 107",(77.10–576.23) ng/mL
same,"plasma concentration, mean ±SD","genotype CYP3A5 *3/*3, n = 117",204.98 ± 96.33 ng/mL
same,"plasma concentration, range","genotype CYP3A5 *3/*3, n = 117",(77.10–576.23) ng/mL
same,"plasma concentration, mean ±SD","genotype CYP3A5 wt/*3, n = 6",164.16 ± 51.72 ng/mL
same,"plasma concentration, median","genotype CYP3A5 wt/*3, n = 6",160.17 ng/mL
same,"plasma concentration, range","genotype CYP3A5 wt/*3, n = 6",(112.43–235.19) ng/mL
same,"plasma concentration, mean ±SD","genotype SULT1A1 *2/*2, n = 15",205.87 ± 101.52 ng/mL
same,"plasma concentration, median","genotype SULT1A1 *2/*2, n = 15",161.90 ng/mL
same,"plasma concentration, range","genotype SULT1A1 *2/*2, n = 15",(102.43–396.73) ng/mL
same,"plasma concentration, mean ±SD","genotype SULT1A1 wt/*2, n = 46",204.84 ± 107.12 ng/mL
same,"plasma concentration, range","genotype SULT1A1 wt/*2, n = 46",(77.10–573.83) ng/mL
same,"plasma concentration, mean ±SD","genotype SULT1A1 wt/wt, n = 60",200.92 ± 86.14 ng/mL
same,"plasma concentration, range","genotype SULT1A1 wt/wt, n = 60",(88.08–576.23) ng/mL
same,"plasma concentration, range","genotype SULT1A2 *2/*2, n = 16",(95.67–396.73) ng/mL
same,"plasma concentration, mean ±SD","genotype SULT1A2 *2/*3, n = 13",222.50 ± 93.29 ng/mL
same,"plasma concentration, median","genotype SULT1A2 *2/*3, n = 13",240.78 ng/mL
same,"plasma concentration, range","genotype SULT1A2 *2/*3, n = 13",(112.43–371.37) ng/mL
same,"plasma concentration, median","genotype SULT1A2 *3/*3, n = 5",164.35 ng/mL
same,"plasma concentration, range","genotype SULT1A2 *3/*3, n = 5",(122.20–302.03) ng/mL
same,"plasma concentration, mean ±SD","genotype SULT1A2 wt/*2, n = 33",227.33 ± 131.55 ng/mL
same,"plasma concentration, range","genotype SULT1A2 wt/*2, n = 33",(88.08–576.23) ng/mL
same,"plasma concentration, range","genotype SULT1A2 wt/*3, n = 16",(89.79–378.32) ng/mL
same,"plasma concentration, range","genotype SULT1A2 wt/wt, n = 38",(77.10–375.04) ng/mL
same,"plasma concentration, mean ±SD","genotype SULT1E1 *2/*2, n = 5",232.36 ± 83.23 ng/mL
same,"plasma concentration, median","genotype SULT1E1 *2/*2, n = 5",202.74 ng/mL
same,"plasma concentration, range","genotype SULT1E1 *2/*2, n = 5",(166.20–375.04) ng/mL
same,"plasma concentration, mean ±SD","genotype SULT1E1 wt/*2, n = 28",200.49 ± 77.50 ng/mL
same,"plasma concentration, range","genotype SULT1E1 wt/*2, n = 28",(77.10–368.73) ng/mL
same,"plasma concentration, mean ±SD","genotype SULT1E1 wt/wt, n = 88",202.17 ± 101.97 ng/mL
same,"plasma concentration, range","genotype SULT1E1 wt/wt, n = 88",(89.79–576.23) ng/mL
"CC/C(=C(\c1ccccc1)c1ccc(OCC[N+](C)(C)[O-])cc1)c1ccccc1 [Tamoxifen-N-oxide, tamoxifen-N-oxide]",mean plasma concentration (±SD),[1],50.88 ± 23.09 ng/mL
same,"plasma concentration, mean ±SD","genotype CYP2D6 wt/P, n = 26",54.04 ± 25.63 ng/mL
same,"plasma concentration, mean ±SD","genotype SULT1A1 *2/*2, n = 15",56.02 ± 24.50 ng/mL
same,"plasma concentration, median","genotype SULT1A1 *2/*2, n = 15",59.27 ng/mL
same,"plasma concentration, range","genotype SULT1A1 *2/*2, n = 15",(15.69–99.37) ng/mL
same,"plasma concentration, mean ±SD","genotype SULT1A1 wt/*2, n = 46",51.02 ± 27.88 ng/mL
same,"plasma concentration, median","genotype SULT1A1 wt/*2, n = 46",41.84 ng/mL
same,"plasma concentration, range","genotype SULT1A1 wt/*2, n = 46",(17.43–142.97) ng/mL
same,"plasma concentration, mean ±SD","genotype SULT1A1 wt/wt, n = 60",48.69 ± 18.93 ng/mL
same,"plasma concentration, range","genotype SULT1A1 wt/wt, n = 60",(15.69–106.35) ng/mL
same,"plasma concentration, mean ±SD","genotype SULT1A2 *2/*2, n = 16",47.18 ± 20.97 ng/mL
same,"plasma concentration, median","genotype SULT1A2 *2/*2, n = 16",50.56 ng/mL
same,"plasma concentration, range","genotype SULT1A2 *2/*2, n = 16",(15.69–81.94) ng/mL
same,"plasma concentration, mean ±SD","genotype SULT1A2 *2/*3, n = 13",46.94 ± 17.33 ng/mL
same,"plasma concentration, range","genotype SULT1A2 *2/*3, n = 13",(17.43–90.66) ng/mL
same,"plasma concentration, mean ±SD","genotype SULT1A2 *3/*3, n = 5",38.35 ± 10.17 ng/mL
same,"plasma concentration, range","genotype SULT1A2 *3/*3, n = 5",(26.15–50.56) ng/mL
same,"plasma concentration, mean ±SD","genotype SULT1A2 wt/*2, n = 33",60.87 ± 31.96 ng/mL
same,"plasma concentration, median","genotype SULT1A2 wt/*2, n = 33",54.04 ng/mL
same,"plasma concentration, range","genotype SULT1A2 wt/*2, n = 33",(20.53–142.97) ng/mL
same,"plasma concentration, mean ±SD","genotype SULT1A2 wt/*3, n = 16",47.29 ± 17.70 ng/mL
same,"plasma concentration, median","genotype SULT1A2 wt/*3, n = 16",46.20 ng/mL
same,"plasma concentration, range","genotype SULT1A2 wt/*3, n = 16",(19.18–83.68) ng/mL
same,"plasma concentration, mean ±SD","genotype SULT1A2 wt/wt, n = 38",47.65 ± 19.19 ng/mL
same,"plasma concentration, median","genotype SULT1A2 wt/wt, n = 38",42.71 ng/mL
same,"plasma concentration, range","genotype SULT1A2 wt/wt, n = 38",(15.69–99.37) ng/mL
same,"plasma concentration, mean ±SD","genotype SULT1E1 *2/*2, n = 5",49.86 ± 8.94 ng/mL
same,"plasma concentration, mean ±SD","genotype SULT1E1 wt/*2, n = 28",47.65 ± 19.38 ng/mL
same,"plasma concentration, median","genotype SULT1E1 wt/*2, n = 28",47.94 ng/mL
same,"plasma concentration, range","genotype SULT1E1 wt/*2, n = 28",(20.53–90.66) ng/mL
same,"plasma concentration, mean ±SD","genotype SULT1E1 wt/wt, n = 88",51.48 ± 25.13 ng/mL
same,"plasma concentration, range","genotype SULT1E1 wt/wt, n = 88",(15.69–142.97) ng/mL
